From patent US6746678B1, “Method of treating neurological diseases and etiologically related symptomology using carbonyl trapping agents in combination with medicaments” (priority 1991, dated 2004)

Legend:
[1] = system: left median and ulnar nerves; assay: Nerve conduction studies on Subject 1 in the clinical trial of PABA with antioxidant and vitamin co-agents; type: in vivo, human; settings: for Latency: distal latency; for Latency / Amplitude / Conduction velocity: May 6, 1992 study; for Change in amplitude / Change in conduction velocity / Change in distal latency: May 6, 1992 vs Jun. 20, 1988
Protocol: Subject 1 is an individual and having hereditary motor and sensory neuropathy. The subject's family has the X-linked subvariety of the disease. All of the composition ingredients of this example were administered via the oral route. On Sep. 1, 1990 Subject 1 began taking three 100 mg tablets of p-aminobenzoic acid per day. This daily dosage consisted of single 100 mg tablets (Schiff Products, Moonachie, N.J.) taken one at a time approximately every eight hours. Also initiated at this time and taken three times per day: DL-methionine, 500 mg and vitamin E (as mix tocopherols in oil-based capsules), 200 I.U. Their weight at the time was approximately 165 lbs. The daily dosage times were approximately 8:00 AM, 4:00 PM and 11:30 PM. This original low dosage of PABA was selected in part as a check to ensure no adverse immunologic reaction. Symptoms of allergic reaction such as bronchial constriction or skin rash were not observed. […] On Oct. 1, 1990 Subject 1 began taking a total of 600 mg PABA per day by doubling the original dosage noted above; 200 mg taken three times per day. Also taken with PABA: DL-methionine, 500 mg and vitamin E, 200 I.U. On Jan. 1, 1991 Subject 1 began taking three 550 mg capsules of PABA (Solgar Co., Lynbrook, N.Y.) per day, one approximately every eight hours. DL-Methionine use was doubled to 1,000 mg every eight hours. Likewise, vitamin E deosage was doubled to 400 I.U. every eight hours. In addition, the following dietary supplements were initiated and taken once per day (4:00 PM): On Feb. 24, 1991 Subject 1 began taking six 550 mg capsules of PABA per day, two every eight hours plus the dietary supplement combination initiated January 1st. DL-Methionine and vitamin E dosage were continued as initiated January 1st; 3,000 mg and 1,200 I.U. total daily, respectively. Dosage of additional dietary supplements was also continued as initiated January 1st, with the addition of 100 mg vitamin B1 per day. Also, selenium daily dosage was reduced to 12 ug per day. As of May 1, 1991 consumption of pantothenic acid and vitamin B1 were tripled to 250 mg 3× daily and 100 mg 3× daily, respectively, taken with PABA. Also initiated now, vitamin B6, 100 mg taken 3× daily with PABA. As of Jul. 1, 1991 the methionine product was switched to “L-Methionine 500 mg Caps with Vitamin B6” (Nature's Plus, Farmingdale, N.Y.). Each capsule has the free form of the L-amino acid and 50 mg vitamin B6. This dose of vitamin B6 is in addition to the 300 mg/day noted in the preceding paragraph. As of Jul. 26, 1991 the vitamin E product was switched to “Natural Dry All E, 400 I.U.” (Schiff Products, Moonachie, N.J.). One of these dry powder capsules is taken 3× daily with PABA, as before. As of Aug. 7, 1991 daily doses of PABA, methionine and vitamin E were increased by 50%. Thus starting at this time, three 550 mg PABA capsules, three 500 mg methionine capsules, one 400 I.U. dry vitamin E and a 200 I.U. dry vitamin E capsule were taken at a time, three times per day. Daily totals of these agents were now: PABA, 4.95 gm; methionine, 4.5 gm; and vitamin E, 1,800 I.U. Other agents were taken as before. As of Nov. 22, 1991 the daily dose of PABA was increased. Thus starting at this time, four 550 mg PABA capsules were taken at a time, three times per day. Daily total of PABA was now 6.6 gm. Other agents were taken as before. On Jun. 20, 1988 Subject 1 participated in a nerve conduction research study at the National Institutes of Health. Nerve conduction data was recorded from the left median and ulnar nerves, which included conduction velocity, amplitude and distal latency for each nerve. On May 6, 1992 Subject 1 was tested again at the office of a neurologist in Bryn Mawr, Pa. This experimental drug trial involved a step-by-step increase in dosages over an extended period. […]

[2] = Check for adverse immunologic or clinical reaction to low-dose oral PABA in Subject 1; type: in vivo, human; settings: oral PABA 100 mg three times per day with DL-methionine 500 mg and vitamin E 200 I.U.
Protocol: Subject 1 is an individual and having hereditary motor and sensory neuropathy. The subject's family has the X-linked subvariety of the disease. All of the composition ingredients of this example were administered via the oral route.
On Sep. 1, 1990 Subject 1 began taking three 100 mg tablets of p-aminobenzoic acid per day. This daily dosage consisted of single 100 mg tablets (Schiff Products, Moonachie, N.J.) taken one at a time approximately every eight hours. Also initiated at this time and taken three times per day: DL-methionine, 500 mg and vitamin E (as mix tocopherols in oil-based capsules), 200 I.U. Their weight at the time was approximately 165 lbs. The daily dosage times were approximately 8:00 AM, 4:00 PM and 11:30 PM. This original low dosage of PABA was selected in part as a check to ensure no adverse immunologic reaction. Symptoms of allergic reaction such as bronchial constriction or skin rash were not observed.

myocardial glutathione = settings: subsequent to experimental ischemia and reperfusion; cited from earlier work
[3] = system: plasma cysteine, plasma glutathione and red blood cell glutathione; settings: in vivo; cited from earlier work

SMILES	Latency ([1]; left median nerve, after PABA up to 6.6 gm/day with co-agents, pre-treatment Jun. 20, 1988 value 12.4) [ms]	Amplitude ([1]; left median nerve, after PABA up to 6.6 gm/day with co-agents, pre-treatment Jun. 20, 1988 value 0.4) [mV]	Conduction velocity ([1]; left median nerve, after oral PABA raised stepwise from 300 mg/day to 6.6 gm/day (Sep 1990-May 1992) with methionine, vitamin E and vitamin co-agents, Subject 1, X-linked HMSN, pre-treatment Jun. 20, 1988 value 28) [meters/sec]	Change in amplitude ([1]; left median nerve)	Change in conduction velocity ([1]; left median nerve)	Change in distal latency ([1]; left median nerve)	Latency ([1]; left ulnar nerve, after PABA up to 6.6 gm/day with co-agents, pre-treatment Jun. 20, 1988 value 13.8) [ms]	Amplitude ([1]; left ulnar nerve, after PABA up to 6.6 gm/day with co-agents, pre-treatment Jun. 20, 1988 value 1.3) [mV]	Conduction velocity ([1]; left ulnar nerve, after PABA up to 6.6 gm/day with co-agents, pre-treatment Jun. 20, 1988 value 29) [meters/sec]	Change in amplitude ([1]; left ulnar nerve)	Change in conduction velocity ([1]; left ulnar nerve)	Change in distal latency ([1]; left ulnar nerve)	Clinical reaction to PABA [2]	Symptoms of allergic reaction such as bronchial constriction or skin rash [2]	Increase in myocardial glutathione (myocardial glutathione) [fold]	Levels of plasma cysteine, plasma glutathione and red blood cell glutathione [3]
Nc1ccc(C(=O)O)cc1 [PABA, 4-Aminobenzoic acid]	13.1	0.4	28.2	remained unchanged	remained unchanged	increased (that is, worsened) by six percent	13.1	2.4	31.8	improved by eighty-five percent	improved by ten percent	improved by five percent	no clinical reaction	not observed	–	–
CC(=O)N[C@@H](CS)C(=O)O [N-acetyl-cysteine]	–	–	–	–	–	–	–	–	–	–	–	–	–	–	100	increase
